In brackets after ≈: the same amount, converted by molar mass. Activity calls are given as the source filed them. The calls are words filed in the database; no cut-off is given here.
Experiments:
Staphylococcus aureus [1] = assay: Antibacterial activity against methicillin-resistant Staphylococcus aureus after 20 hrs; format: functional
Staphylococcus aureus [2] = assay: Antibacterial activity against Staphylococcus aureus Smith after 20 hrs; format: functional
Streptococcus pneumoniae = assay: Antibacterial activity against Streptococcus pneumoniae up to 1.4 mM after 20 hrs; format: functional, organism-based
Haemophilus influenzae = assay: Antibacterial activity against Haemophilus influenzae up to 1.4 mM after 20 hrs; format: functional, organism-based
Bacillus subtilis = assay: Antibacterial activity against Bacillus subtilis after 20 hrs; format: functional
Enterococcus faecalis = assay: Antibacterial activity against Enterococcus faecalis after 20 hrs; format: functional
Escherichia coli = assay: Antibacterial activity against Escherichia coli up to 1.4 mM after 20 hrs; format: functional, organism-based
Candida albicans = assay: Antifungal activity against Candida albicans up to 1.4 mM after 24 hrs; format: functional, organism-based

In the case of `C/C=C/[C@@H]1C(C)=C[C@@H]2CC[C@@H](C)C[C@@H]2[C@]1(C)C(=O)C1=C(O)C(CO)N(C)C1=O` (some centres undefined), the MIC (Staphylococcus aureus [1]) is reported as 12 µM (≈ 4.65 µg/mL).
`C/C=C/[C@@H]1C=C[C@@H]2C[C@@H](C)CC[C@@H]2[C@]1(C)C(=O)C1=C(O)C(C(C)O)N(C)C1=O` (some centres undefined) [CISSETIN] gave an MIC (Staphylococcus aureus [1]) of 10 µM (≈ 3.88 µg/mL).
In the case of `C/C=C/[C@H]1C(C)=C[C@H]2C[C@H](C)[C@H](O)C[C@H]2[C@]1(C)/C=C(C)/C=C/C(=O)O` [PANNOMYCIN], the MIC (Staphylococcus aureus [2]) is reported as 1400 µM (≈ 482 µg/mL), the Activity (Streptococcus pneumoniae) is reported as “inactive” and the Activity (Haemophilus influenzae) is reported as “inactive”. For the same compound, the MIC (Bacillus subtilis) was 400 µM (≈ 138 µg/mL), the MIC (Enterococcus faecalis) was 1400 µM (≈ 482 µg/mL) and the Activity (Escherichia coli) was “inactive”. For the same compound, the Activity (Candida albicans) was “inactive”.

Source: ChEMBL document CHEMBL1151804, “Antisense-guided isolation and structure elucidation of pannomycin, a substituted cis-decalin from Geomyces pannorum” (2009)
